In patent US10774074B2, “2-(1-heteroarylpiperazin-4-yl)methyl-1,4-benzodioxane derivatives as alpha2C antagonists” (ORION CORPORATION, priority 2015, dated 2020):
Counter-ions that a name gives are not always drawn.

How the values were obtained:
human alpha2A receptors = biological target: T1, human alpha2A receptors (Homo sapiens, UniProt P08913); experiment: Determination of alpha2A antagonistic activity in vitro (FLIPR calcium assay, CHO cells); assay type: cell-based; details: for Kb: Kb calculated with the Cheng-Prusoff equation from IC50, adrenaline as agonist, CHO cells, human alpha2A, read-out: Alpha 2A Adrenaline Kb; for IC50: antagonism of adrenaline stimulation, CHO cells stably transfected with human alpha2A receptor and Gα16, intracellular calcium (FLIPR), read-out: Alpha 2A Adrenaline IC50
T1 construct: host or cells: CHO cells, cotransfected with pCEP-Gα16
T1 sequence (P08913 1-465): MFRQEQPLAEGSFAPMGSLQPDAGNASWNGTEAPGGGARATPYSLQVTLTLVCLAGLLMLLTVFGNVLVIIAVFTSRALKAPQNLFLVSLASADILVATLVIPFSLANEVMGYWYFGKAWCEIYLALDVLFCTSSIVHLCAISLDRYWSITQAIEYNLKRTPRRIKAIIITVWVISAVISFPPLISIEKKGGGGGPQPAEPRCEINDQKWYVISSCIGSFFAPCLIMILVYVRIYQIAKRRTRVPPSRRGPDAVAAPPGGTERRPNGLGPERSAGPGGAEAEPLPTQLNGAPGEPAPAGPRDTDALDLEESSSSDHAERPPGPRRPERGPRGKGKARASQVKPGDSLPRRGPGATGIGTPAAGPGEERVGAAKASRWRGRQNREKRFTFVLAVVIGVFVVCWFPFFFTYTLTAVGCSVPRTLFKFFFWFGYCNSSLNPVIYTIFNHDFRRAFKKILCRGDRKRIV
Method: (§1) EXPERIMENT 1: Determination of alpha2A and alpha2C Antagonistic Activity In Vitro
(§2) Chinese hamster ovary (CHO) cells stably transfected with human alpha2A or alpha2C receptors (University of Turku, Finland) were cotransfected with the expression vector pCEP-Gα16 (Molecular Devices, CA, USA) were used in this experiment. The cells were maintained at 37° C. in a 5% CO2/95% air atmosphere. The cells were cultured in HAM F-12 medium supplemented with 10% FCS, 25 mM HEPES, 100 IU/ml penicillin, 100 µg/ml streptomycin, 500 μg/ml geneticin and 240 μg/ml hygromycin B. The cells were subcultured twice weekly with 0.25% trypsin and 1 mM EDTA. The subculture ratio was 1:5-1:20. The growth medium was changed every 2 or 3 days. All cell culture reagents were from Gibco. The day before the experiment the cells were plated into black-walled, clear bottom 384-well plates at a density of 10,000 cells/well.
(§3) The growth medium was removed and the cells were incubated with the test compounds and the FLIPR Calcium 6 Assay reagent (Molecular Devices, CA, USA) for 2 h at 37° C. in dark. The test compounds (concentrations in cells 100 pM-10 μM) were dissolved in Probenecid-Ringer consisting of 150 mM NaCl, 3 mM KCl, 1.2 mM MgCl2, 1 mM CaCl2, 5 mM glucose, 20 mM HEPES and 2.5 mM probenecid (pH 7.4 adjusted with 1.0 M NaOH). The osmolarity was adjusted to 322 milliosmoles with Osmostat® OM-6020 osmometer (DIC Kyoto Daiichi Kagagu Co. Ltd, Japan). […] All experiments were performed at 37° C. For agonism measurements the test compounds dissolved in Probenecid-Ringer were applied by FLIPR Tetra at 15 s time point. In order to determine antagonism, the cells were stimulated either with 100 nM adrenaline or noradrenaline and the test compounds were added to the cells 2 h before the experiment with the FLIPR Calcium 6 Assay reagent. […] Typically, there were four replicates at each concentration and six different dose levels. For example, if the number of plates from which results were obtained was three, 72 (4*6*3) wells were thus measured to construct dose-response relationship. The samples were excited at 485 nm and emission was detected at 525 nm with a 515 nm cut-off filter. The minimum fluorescence value subtracted from the maximum value for each well was used in the calculations. ScreenWorks version 4.0 software was used for analyzing the results. Fitting of the antagonist dose-response results was performed with the free Hill equation and the IC50 values were fitted with IDBS XE software using model 200: y=(A+(B/(1+((x/C)^D)))), where A is the curve maximum, B the curve minimum and C equals the EC50 value. D is slope factor (Hill). Kb was calculated with the Cheng-Prusoff equation Kb=A/((B/C)+1), where A is the IC50 of antagonist, B the concentration of agonist and C the EC50 of the agonist.

human alpha2C receptors = biological target: T2, human alpha2C receptors (Homo sapiens, UniProt P18825); experiment: Determination of alpha2C antagonistic activity in vitro (FLIPR calcium assay, CHO cells); assay type: cell-based; details: for Kb: Kb calculated with the Cheng-Prusoff equation from IC50, adrenaline as agonist, CHO cells, human alpha2C, read-out: Alpha 2C Adrenaline Kb; for IC50: antagonism of adrenaline stimulation, CHO cells stably transfected with human alpha2C receptor and Gα16, intracellular calcium (FLIPR), read-out: Alpha 2C Adrenaline IC50
T2 construct: host or cells: CHO cells, cotransfected with pCEP-Gα16
T2 sequence (P18825 1-462): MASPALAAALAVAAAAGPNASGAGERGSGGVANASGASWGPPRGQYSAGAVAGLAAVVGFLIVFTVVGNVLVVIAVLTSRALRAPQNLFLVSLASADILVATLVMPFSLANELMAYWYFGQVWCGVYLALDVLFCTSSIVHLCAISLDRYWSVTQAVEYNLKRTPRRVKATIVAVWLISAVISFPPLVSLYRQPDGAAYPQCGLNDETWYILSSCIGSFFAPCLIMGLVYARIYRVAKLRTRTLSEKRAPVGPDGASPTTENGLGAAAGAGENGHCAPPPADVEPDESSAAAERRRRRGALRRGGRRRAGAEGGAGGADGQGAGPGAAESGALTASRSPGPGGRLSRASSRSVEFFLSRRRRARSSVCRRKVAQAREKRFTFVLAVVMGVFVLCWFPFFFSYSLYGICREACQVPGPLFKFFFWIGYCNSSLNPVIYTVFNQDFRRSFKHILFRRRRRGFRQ
Method: as §1, §2, §3

Row | SMILES | Kb (human alpha2A receptors) | IC50 (human alpha2A receptors) | Kb (human alpha2C receptors) | IC50 (human alpha2C receptors)
1 | CN(C)C(=O)c1nsnc1N1CCN(C[C@H]2COc3ccccc3O2)CC1 [Compound of example 34, (S)-4-(4-((2,3-Dihydrobenzo[b][1,4]dioxin-2-yl)methyl)piperazin-1-yl)-N,N-dimethyl-1,2,5-thiadiazole-3-carboxamide] | > 449 nM | > 10000 nM | 0.92 nM | 0.09 nM
2 | c1ccc2c(c1)OC[C@H](CN1CCN(c3nsc4cccnc34)CC1)O2 [Compound of example 36, (S)-3-(4-((2,3-Dihydrobenzo[b][1,4]dioxin-2-yl)methyl)piperazin-1-yl)isothiazolo[4,5-b]pyridine hydrochloride] | 298 nM | 6650 nM | 135 nM | 13.6 nM
3 | c1ccc(COc2ncccc2Nc2nsnc2N2CCN(C[C@H]3COc4ccccc4O3)CC2)cc1 [Compound of example 37, (S)—N-(2-(Benzyloxy)pyridin-3-yl)-4-(4-((2,3-dihydrobenzo[b][1,4]-dioxin-2-yl)methyl)piperazin-1-yl)-1,2,5-thiadiazol-3-amine hydrochloride] | > 449 nM | > 10000 nM | 73.1 nM | 7.36 nM
4 | Cc1cc(N2CCN(C[C@H]3COc4ccccc4O3)CC2)n(-c2ccccn2)n1 [Compound of example 38, (S)-1-((2,3-Dihydrobenzo[b][1,4]dioxin-2-yl)methyl)-4-(3-methyl-1-(pyridin-2-yl)-1H-pyrazol-5-yl)piperazine] | 149 nM | 3320 nM | 2.28 nM | 0.23 nM
5 | COc1cccc(-n2nc(C)cc2N2CCN(C[C@H]3COc4ccccc4O3)CC2)n1 [Compound of example 39, (S)-1-((2,3-Dihydrobenzo[b][1,4]dioxin-2-yl)methyl)-4-(1-(6-methoxypyridin-2-yl)-3-methyl-1H-pyrazol-5-yl)piperazine] | 82 nM | 1830 nM | 0.29 nM | 0.03 nM
6 | Cc1cccc(-n2nc(C)cc2N2CCN(C[C@H]3COc4ccccc4O3)CC2)n1 [Compound of example 40, (S)-1-((2,3-Dihydrobenzo[b][1,4]dioxin-2-yl)methyl)-4-(3-methyl-1-(6-methylpyridin-2-yl)-1H-pyrazol-5-yl)piperazine] | 100 nM | 2230 nM | 2.57 nM | 0.26 nM
